In article PMC12368479, “Inhibition of the Clathrin Terminal Domain—Amphiphysin Protein–Protein Interaction. Probing the Pitstop 2 Aromatic Moiety” (Chemmedchem, 2025):
Like-named read-outs stand apart in the source and are kept apart here.

Tests used:
[1] = target: T1, full length human Dynamin I (Homo sapiens, UniProt Q05193); test: Dynamin GTPase activity, Malachite Green phosphate detection assay; type: biochemical
T1 construct: full length human Dynamin I expressed in Sf21 insect cells; made in house; host or cells: Sf21 insect cells
T1 sequence (Q05193 1-864): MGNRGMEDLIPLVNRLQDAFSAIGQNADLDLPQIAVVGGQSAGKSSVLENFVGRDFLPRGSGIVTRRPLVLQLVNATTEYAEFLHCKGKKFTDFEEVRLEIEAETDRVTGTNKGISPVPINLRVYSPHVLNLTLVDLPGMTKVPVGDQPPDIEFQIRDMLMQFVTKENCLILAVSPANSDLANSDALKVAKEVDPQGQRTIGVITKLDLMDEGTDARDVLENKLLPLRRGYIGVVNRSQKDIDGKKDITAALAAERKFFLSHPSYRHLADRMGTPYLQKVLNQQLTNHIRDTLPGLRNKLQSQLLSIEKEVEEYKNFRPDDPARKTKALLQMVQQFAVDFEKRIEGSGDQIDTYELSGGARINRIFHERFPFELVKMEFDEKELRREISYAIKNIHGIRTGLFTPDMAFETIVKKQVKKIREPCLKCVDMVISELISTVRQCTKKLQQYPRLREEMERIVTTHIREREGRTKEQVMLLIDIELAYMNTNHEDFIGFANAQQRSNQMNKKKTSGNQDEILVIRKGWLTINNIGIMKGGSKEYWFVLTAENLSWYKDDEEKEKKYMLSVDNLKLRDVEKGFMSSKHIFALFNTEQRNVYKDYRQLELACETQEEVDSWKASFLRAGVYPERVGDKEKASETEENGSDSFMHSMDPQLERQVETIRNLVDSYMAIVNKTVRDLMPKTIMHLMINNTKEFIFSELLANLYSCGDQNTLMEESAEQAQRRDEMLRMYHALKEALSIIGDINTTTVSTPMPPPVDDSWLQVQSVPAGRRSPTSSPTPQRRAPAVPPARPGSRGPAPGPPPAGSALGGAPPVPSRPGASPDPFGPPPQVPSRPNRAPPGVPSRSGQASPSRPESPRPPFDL
Method: Dynamin GTPase activity was determined in vitro using the Malachite Green phosphate detection absorbance‐based assay within a 96‐well plate format as described previously. The enzyme source was full length human Dynamin I expressed in Sf21 insect cells and affinity‐purified on GST‐Amph2‐SH3 (rat Amphiphysin 2 (494–588)).^[ [56] ^]

[2] = test system: transferrin uptake (CME) in U2OS osteosarcoma cells; test: Clathrin-mediated endocytosis assay: transferrin (Tfn) uptake in U2OS cells; type: cell-based; conditions: Homo sapiens, U2OS
Method: Using our previously reported CME assay in U2OS cells, the ability of these compounds to block endocytosis was examined (Table 5 ).^[ [48], [49] ^]
CME was examined by a high‐throughput, quantitative assay for measuring transferrin (Tfn) uptake in U2OS osteosarcoma cells, based on methods described previously.^[ [48] ^]
Compounds were made up fresh from powder stock just prior to commencing the assay, and stock solutions were stored at −20 °C for several months.

[3] = target: T2, clathrin heavy chain NTD (amino acids 1–364) – amphiphysin 1 B/C domain protein–protein interaction (NTD‐PPI) (Homo sapiens, UniProt Q00610); test: ELISA-based clathrin inhibitor binding assay (NTD-PPI)
T2 construct: GST‐tagged clathrin heavy chain NTD (amino acids 1–364); made in house
T2 sequence (Q00610 1-364): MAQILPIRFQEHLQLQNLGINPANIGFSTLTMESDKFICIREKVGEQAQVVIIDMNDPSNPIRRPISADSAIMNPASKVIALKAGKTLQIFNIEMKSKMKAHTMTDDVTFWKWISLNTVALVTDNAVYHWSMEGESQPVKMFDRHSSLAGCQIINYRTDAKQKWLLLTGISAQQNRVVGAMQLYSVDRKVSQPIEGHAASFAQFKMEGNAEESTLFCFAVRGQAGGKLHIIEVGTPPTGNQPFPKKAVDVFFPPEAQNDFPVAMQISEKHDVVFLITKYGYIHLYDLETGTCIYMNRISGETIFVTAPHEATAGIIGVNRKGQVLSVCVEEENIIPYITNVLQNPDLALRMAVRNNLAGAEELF
Summary of the method: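 His6-tagged amphiphysin 1 B/C domain (aa 250–578) was coated on plates in 20 mM HEPES pH 7.4, 50 mM NaCl, 1 mM DTT; compounds were incubated 1 h at room temperature with GST-clathrin NTD (aa 1–364). Bound NTD was detected by HRP anti-GST and TMB absorbance, expressed as percent binding of DMSO control.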

[4] = Qualitative solubility in solvents (compound data sheets, Supporting Information); type: physicochemical; conditions: solvents in which the compound dissolves
[5] = Table 1, library 1, n = 1 unless noted (19: n = 2), '–' = not active at 150 μM, read-out: Dyn 1 IC50
[6] = Table 5, dynamin GTPase, n = 1 or n = 2 as footnoted, NA = not active at 100 μM, read-out: Dynamin 1 IC50
[7] = Table 5, inhibition of transferrin‐red uptake in U2OS cells, '–'/NA = not active at 100 μM
[8] = Table 1, library 1, ELISA, average of duplicate measurements (n=2), read-out: NTD‐PPI IC50
[9] = Table 5, ELISA, read-out: NTD‐PPI IC50
[10] = Table 4, library 4, ELISA, average of duplicate measurements (n = 2), read-out: NTD‐PPI IC50

Row | SMILES | IC50 [1, 5] [µM] | IC50 [1, 6] [µM] | IC50 [2, 7] [µM] | IC50 [3, 8] [µM] | IC50 [3, 9] [µM] | IC50 ([3]; read-out: NTD‐PPI IC50 (ELISA)) [µM] | Solubility [4] | fold potency reduction (NTD‐PPI) ([3]; ELISA, comparator not named (lead Pitstop 2 series)) [fold] | fold less active (NTD‐PPI) than furan (48) ([3]; ELISA, C2 linked analogues) [fold] | IC50 [3, 10] [µM] | IC50 ([2]; U2OS cells) [µM] | IC50 ([1]; Table 4, library 4, n = 1 or n = 2 as footnoted, '–' = not active at 100 μM, read-out: Dynamin 1 IC50) [µM]
1 | O=C1N=C(NS(=O)(=O)c2cccc3ccccc23)S/C1=C\c1ccc(O)cc1 [compound 6, (Z)‐N‐(5‐(4‐hydroxybenzylidene)‐4‐oxo‐4,5‐dihydrothiazol‐2‐yl)naphthalene‐1‐sulfonamide] | > 150 | > 100 | 46.7 ± 13.1 | 5.6 | 5.6 | 2.7 | DMSO, slightly soluble in ethanol, acetone, methanol and ethyl acetate | – | – | – | – | –
2 | O=C1N=C(NS(=O)(=O)c2cccc3ccccc23)S/C1=C\c1cccc(O)c1 [compound 7, N‐[(5Z)‐5‐(3‐hydroxybenzylidene)‐4‐oxo‐4,5‐dihydro‐1,3‐thiazol‐2‐yl]naphthalene‐1‐sulfonamide] | > 150 | > 100 | 25 ± 14.6 | – | – | – | DMSO, slightly soluble in acetone, ethyl acetate, methanol and ethanol | – | – | – | – | –
3 | O=C1N=C(NS(=O)(=O)c2cccc3ccccc23)S/C1=C\c1ccc(C(=O)O)cc1 [compound 9, 4‐[(Z)‐{2‐[(naphthalen‐1‐ylsulfonyl)amino]‐4‐oxo‐1,3‐thiazol‐5(4H)‐ylidene}methyl]benzoic acid] | > 150 | – | – | 7.4 | – | – | DMSO, slightly soluble in acetone, ethyl acetate, ethanol and methanol | – | – | – | – | –
4 | O=C1N=C(NS(=O)(=O)c2cccc3ccccc23)S/C1=C\c1cccc(C(=O)O)c1 [compound 10, (Z)‐3‐((2‐(naphthalene‐1‐sulfonamido)‐4‐oxothiazol‐5(4 H)‐ylidene)methyl)benzoic acid] | > 150 | – | – | 5.3 | – | – | DMSO | – | – | – | – | –
5 | O=C1N=C(NS(=O)(=O)c2cccc3ccccc23)S/C1=C\c1cccc([N+](=O)[O-])c1 [compound 14, (Z)‐N‐(5‐(3‐nitrobenzylidene)‐4‐oxo‐4,5‐dihydrothiazol‐2‐yl)naphthalene‐1‐sulfonamide] | > 150 | > 100 | 34.4 ± 13.7 | – | – | – | DMSO, slightly soluble in acetone, ethanol and methanol | – | – | – | – | –
6 | O=C1N=C(NS(=O)(=O)c2cccc3ccccc23)S/C1=C\c1ccccc1[N+](=O)[O-] [compound 15, (Z)‐N‐(5‐(2‐nitrobenzylidene)‐4‐oxo‐4,5‐dihydrothiazol‐2‐yl)naphthalene‐1‐sulfonamide] | 42.2 | ~42.4 | 46.3 ± 13.7 | 153 | 153 | – | DMSO, slightly soluble in ethyl acetate, acetone, ethanol and methanol | > 100 | – | – | – | –
7 | O=C1N=C(NS(=O)(=O)c2cccc3ccccc23)S/C1=C\c1ccc[nH]1 [compound 47, (Z)‐N‐(5‐((1H‐pyrrol‐2‐yl)methylene)‐4‐oxo‐4,5‐dihydrothiazol‐2‐yl)naphthalene‐1‐sulfonamide] | – | – | 27.2 ± 11.7 | – | 5.3 | – | DM SO slightly soluble in acetone an d methanol | – | 2 | 5.3 | – | –
8 | O=C1N=C(NS(=O)(=O)c2cccc3ccccc23)S/C1=C\c1ccco1 [compound 48, (Z)‐N‐(5‐(furan‐2‐ylmethylene)‐4‐oxo‐4,5‐dihydrothiazol‐2‐yl)naphthalene‐1‐sulfonamide] | – | – | ~96.6 | – | 3.64 | 3.6 | DM SO, slig htly soluble in methanol | – | – | 3.64 | > 50 | –
9 | O=C1COc2ccc(/C=C3\SC(NS(=O)(=O)c4cccc5ccccc45)=NC3=O)cc2N1 [compound 52, (Z)‐N‐(4‐oxo‐5‐((3‐oxo‐3,4‐dihydro‐2H‐benzo[b][1,4]oxazin‐6‐yl)methylene)‐4,5‐dihydrothiazol‐2‐yl)naphthalene‐1‐sulfonamide] | – | ~54.1 | > 100 | – | 3.33 | < 5 | DM SO, slig htly soluble in acetone, ethanol an d m ethanol | – | – | 3.33 | > 50 | ~54.1
